Reference: ChEMBL document CHEMBL5226340, “Chemical Biology of Sortase A Inhibition: A Gateway to Anti-infective Therapeutic Agents” (J Med Chem, 2021)
Values after ≈ are worked out from the molar mass of the structure shown. Residues, ends and D or L forms follow the SMILES beside them. *: point of attachment. Cbz = O=C(OCc1ccccc1)*; CH2Cl = ClC*

Experiments:
Sortase A [1] = biological target: T1, Sortase A (Staphylococcus aureus, UniProt Q9S446); test: Inhibition of Staphylococcus aureus SrtA catalytic domain (60 to 206 residues) using Abz-LPETGDap(Dnp)-NH2 as substrate preincubated for 1 hr followed by substrate addition and measured immediately by FRET assay
T1 sequence (Q9S446 whole entry): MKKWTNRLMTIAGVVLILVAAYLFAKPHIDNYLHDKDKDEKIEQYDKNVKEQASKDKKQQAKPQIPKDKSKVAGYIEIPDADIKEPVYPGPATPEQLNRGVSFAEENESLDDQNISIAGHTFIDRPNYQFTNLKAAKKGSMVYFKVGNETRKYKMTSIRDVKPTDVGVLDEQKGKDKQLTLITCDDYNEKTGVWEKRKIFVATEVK

[2] = biological target: T2, Sortase A (Staphylococcus aureus) (UniProt Q9S446); test: Binding affinity to Staphylococcus aureus SrtA assessed as kinact/ki
T2 sequence (whole entry): T1 sequence (Q9S446 whole entry)

Sortase A [3] = biological target: T1, Sortase A; test: Inhibition of Staphylococcus aureus SrtA expressed in Escherichia coli by fluorescence based analysis
Sortase A [4] = biological target: T1, Sortase A; test: Inhibition of Staphylococcus aureus SrtA using EDANS-Dabcyl as substrate by FRET assay
Staphylococcus aureus [5] = test: Antibacterial activity against Staphylococcus aureus; format: functional
Sortase A [6] = biological target: T1, Sortase A; test: Inhibition of Staphylococcus aureus SrtA
Staphylococcus aureus [7] = test: Antibacterial activity against Staphylococcus aureus SA113 by microbroth dilution assay; format: functional
Sortase A [8] = biological target: T1, Sortase A; test: Inhibition of Staphylococcus aureus ATCC 6538p SrtA using dabcyl-LPETG-edans as substrate incubated for 1 hr by fluorometric analysis
Sortase A [9] = biological target: T1, Sortase A; test: Inhibition of C-terminal 6His-tagged recombinant Staphylococcus aureus SrtA with 1 to 59 residues truncated from N-terminus expressed in Escherichia coli BL21 (DE3) using dabcyl-QALPETGEE-edans as substrate preincubated for 1 hr followed by substrate addition and measured for 1 hr by FRET assay
Staphylococcus aureus [10] = test: Inhibition of biofilm formation in Staphylococcus aureus ATCC 29213 incubated for 24 hrs by crystal violet staining based analysis; format: functional, organism-based; settings: ATCC 29213, 24 h
Sortase A [11] = biological target: T1, Sortase A; test: Binding affinity to Staphylococcus aureus SrtA (60 to 206 residues) using Dabcyl-Gln-Ala-Leu-Pro-Glu-Thr-Gly-Glu-Glu-Edans as substrate incubated for 12 hrs by fluorescence based analysis
[12] = biological target: T2, Sortase A (Staphylococcus aureus); test: Binding affinity to Staphylococcus aureus SrtA (60 to 206 residues) using Dabcyl-Gln-Ala-Leu-Pro-Glu-Thr-Gly-Glu-Glu-Edans as substrate assessed as first order rate constant of inactivation incubated for 12 hrs by fluorescence based analysis
[13] = biological target: T2, Sortase A (Staphylococcus aureus); test: Binding affinity to Staphylococcus aureus SrtA (60 to 206 residues) using Dabcyl-Gln-Ala-Leu-Pro-Glu-Thr-Gly-Glu-Glu-Edans as substrate assessed as second order rate constant of inhibition, kinact/ki incubated for 12 hrs by fluorescence based analysis
[14] = biological target: T2, Sortase A (Staphylococcus aureus); test: Binding affinity to wild type recombinant Staphylococcus aureus SrtA using Dabcyl-Gln-Ala-Leu-Pro-Glu-Thr-Gly-Glu-Glu-Edans as substrate assessed as first order rate constant of inactivation by FRET assay
[15] = biological target: T2, Sortase A (Staphylococcus aureus); test: Binding affinity to wild type recombinant Staphylococcus aureus SrtA using Dabcyl-Gln-Ala-Leu-Pro-Glu-Thr-Gly-Glu-Glu-Edans as substrate assessed as second order rate constant of inhibition, kinact/Ki by FRET assay
Sortase A [16] = biological target: T1, Sortase A; test: Binding affinity to wild type recombinant Staphylococcus aureus SrtA using Dabcyl-Gln-Ala-Leu-Pro-Glu-Thr-Gly-Glu-Glu-Edans as substrate by FRET assay
Sortase A [17] = biological target: T1, Sortase A; test: Inhibition of recombinant Staphylococcus aureus ATCC 6538p SrtA expressed in Escherichia coli TOP10 using Dabcyl-QALPETGEE-Edans as substrate incubated for 1 hr by fluorometric analysis
Sortase A [18] = biological target: T1, Sortase A; test: Inhibition of Staphylococcus aureus SrtA with 24 residues truncated from N-terminus using Abz-LPATG-Dap as substrate
Sortase A [19] = biological target: T1, Sortase A; test: Inhibition of recombinant Staphylococcus aureus SrtA using DabcylQALPETGEE-Edans as substrate by FRET assay
Sortase A [20] = biological target: T1, Sortase A; test: Inhibition of Staphylococcus aureus USA 300 SrtA expressed in Escherichia coli BL21 (DE3) cells using Dabcyl-QALPETGEE-Edans as substrate incubated for 1 hr by FRET assay
Sortase A [21] = biological target: T1, Sortase A; test: Inhibition of Staphylococcus aureus SrtA (60 to 206 residues) using Abz-LPETG-Dap(Dnp)-NH2 as substrate incubated for 1 hr by FRET assay

O=c1c(OCCCO)c(SSc2cnn(-c3cccc(F)c3)c(=O)c2OCCCO)cnn1-c1cccc(F)c1
IC50 (Sortase A [1]): 0.02 µM
Ratio [2]: 1.8 10^4/M/min

Cc1cc2nc3[nH]c(=O)[nH]c(=O)c3nc2cc1C [LUMICHROME]
IC50 (Sortase A [3]): 198 µM

CCSSc1ccccc1C(=O)NCC(=O)Nc1cccc(Oc2ccccc2)c1
Ratio [2]: 7.24 10^4/M/min

COc1cc(/C=C/C(=O)CC(=O)/C=C/c2ccc(O)cc2)ccc1O
IC50 (Sortase A [4]): 70.3 µM
MIC (Staphylococcus aureus [5]): > 543 µM

CCOc1c(SSc2cnn(-c3cccc(OC)c3)c(=O)c2OCC)cnn(-c2cccc(OC)c2)c1=O
IC50 (Sortase A [1]): 0.62 µM

COc1c(O)c2c(c3c1O[C@@]1(O)C(C)(C)[C@H](C)O[C@@]31O)C(=O)C(C)=CC2=O
IC50 (Sortase A [6]): 23.6 µM

O=C(/C=C/c1ccc(O)c(O)c1)O[C@@H]1C[C@](O)(C(=O)O)C[C@@H](O)[C@H]1O [CHLOROGENIC ACID]
IC50 (Sortase A [4]): 95.6 µM
MIC (Staphylococcus aureus [5]): 2900 µM (≈ 1030 µg/mL)

CSSc1ccccc1C(=O)NCC(=O)NC12CC3CC(CC(C3)C1)C2
Ratio [2]: 5.93 10^4/M/min
MIC (Staphylococcus aureus [7]): 16 µM (≈ 6.25 µg/mL)

C[C@H]1CC[C@H]2[C@@H](C=C[C@@](C)(O)[C@]2(C)C(=O)CCO)C1
IC50 (Sortase A [8]): 146 µM

Cc1cc(C(=O)/C(=N/Nc2c(F)cccc2F)C(=O)O)no1
MIC (Staphylococcus aureus [5]): > 200 µM
IC50 (Sortase A [9]): 76.5 µM
IC50 (Staphylococcus aureus [10]): 29 µM

Cc1cc(C(=O)/C(=N/Nc2ccc(Cl)c(Cl)c2)C(=O)O)no1
IC50 (Sortase A [9]): > 200 µM
IC50 (Staphylococcus aureus [10]): 0.8 µM

O=C1N[C@H](c2c[nH]c3cc(Br)ccc23)CN=C1c1c[nH]c2ccccc12
IC50 (Sortase A [4]): 83.2 µM

CC(C)C[C@H](NC(=O)OCc1ccccc1)C(=O)N1CCC[C@H]1C(=O)N[C@@H](C)C(=O)N[C@@H](/C=C/S(=O)(=O)c1ccccc1)[C@@H](C)O
Ki (Sortase A [11]): 9 µM
Kinact [12]: 4 10^-4/min
Kinact [13]: 0.74 M⁻¹ s⁻¹
Ratio [13]: 44.4 M⁻¹ min⁻¹

O=C(O)/C=C/c1ccc(O)c(O)c1 [CAFFEIC ACID]
MIC (Staphylococcus aureus [5]): > 5750 µM
IC50 (Sortase A [6]): 860 µM

CC(C)C[C@H](NC(=O)OCc1ccccc1)C(=O)N1CCC[C@H]1C(=O)N[C@@H](C)C(=O)N[C@H](C(=O)CCl)[C@@H](C)O (Cbz-LPAT-CH2Cl)
Kinact [14]: 1.1 10^-2/min
Ratio [15]: 5.3 10^4/M/min
kinact/Ki [15]: 883 M⁻¹ s⁻¹
Ki (Sortase A [16]): 0.2 µM

O=c1c(O)c(-c2ccc(O)c(O)c2)oc2cc(O)cc(O)c12 [QUERCETIN]
IC50 (Sortase A [17]): 52.7 µM

O=S(=O)(O)c1cccc(-c2nn3c(-c4ccncc4)nnc3s2)c1
IC50 (Sortase A [18]): 9.3 µM

O=c1cc(CO)oc(C(Nc2ccccn2)c2ccsc2)c1O (stereo unspecified)
MIC (Staphylococcus aureus [5]): > 1550 µM
Ratio [2]: 0.7 10^3/M/min

CCOc1c(S)cnn(-c2ccccc2)c1=O
IC50 (Sortase A [1]): 35 µM

CCOc1c(SSc2cnn(-c3cccc(F)c3)c(=O)c2OCC)cnn(-c2cccc(F)c2)c1=O
IC50 (Sortase A [1]): 0.16 µM

CCSSc1ccccc1C(=O)NCC(=O)NCC1CCCCC1
Ratio [2]: 7.13 10^4/M/min

COc1ccc2c(c1OC)C(=O)O[C@@H]2[C@H]1c2cc3c(cc2CCN1C)OCO3 [HYDRASTINE]
IC50 (Sortase A [19]): > 209 µM

O=c1c(OCCO)c(SSc2cnn(-c3ccccc3)c(=O)c2OCCO)cnn1-c1ccccc1
IC50 (Sortase A [1]): 0.22 µM

CSSc1ccccc1C(=O)N1CCC[C@H]1C(=O)NC12CC3CC(CC(C3)C1)C2
Ratio [2]: 5.75 10^4/M/min
MIC (Staphylococcus aureus [7]): 116 µM (≈ 50 µg/mL)

CCCC(=O)c1c(O)c(CC2=C(O)C(C)(C)C(=O)C(C(C)=O)=C2O)c(O)c(Cc2c(O)c(C(=O)CCC)c(O)c(C(C)C3=C(O)C(C)(C)C(=O)C(C(C)=O)=C3O)c2O)c1O (stereo unspecified)
IC50 (Sortase A [20]): 24.2 µM

O=c1cc(CO)oc(C(Nc2ccccn2)c2ccc(C(F)(F)F)cc2)c1O (stereo unspecified)
MIC (Staphylococcus aureus [5]): > 1300 µM
Ratio [2]: 1.7 10^3/M/min

O=c1c(OCCO)c(SSc2cnn(-c3cccc(F)c3)c(=O)c2OCCO)cnn1-c1cccc(F)c1
IC50 (Sortase A [1]): 0.41 µM

CCSSc1ccccc1C(=O)NCC(=O)Nc1ccc(F)cc1
Ratio [2]: 6.14 10^4/M/min

Clc1ccc(C2Nc3cccc4cccc(c34)N2)cc1
IC50 (Sortase A [21]): 89 µM
